Patent US20110044938A1 (NYCOMED GMBH, priority 2006, published 2011)

Key:
[1] = system: RKO (RKOp27) human colon adenocarcinoma cells; assay: Alamar Blue cell viability assay, anti-proliferative/cytotoxic activity on proliferating RKO subclones; assay type: cell-based; conditions: RKOp27, 72 h, RKO p27 uninduced (proliferating) cells, value = class bound given in Table A, read-out: −logIC50 RKO p27 uninduced (proliferating) (converted)
Method in brief: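 Alamar Blue fluorescence (ex 544, em 590 nm) after 72 h compound exposure at 37 °C, 5% CO2, normalised to untreated controls set at 100%. Cells were seeded at 5000 per well and dosed 24 h later with serial semi-logarithmic dilutions in 10% FCS DMEM, four replicates each. −log IC50 [mol/l] was derived from concentration-effect curves.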

[2] = system: subclones of RKO colon adenocarcinoma cells (RKOp27 or RKOp21) arrested by Ponasterone A; assay: Alamar Blue cell viability assay, cell cycle specific mode of action: cells arrested by ectopic p27Kip1 induced by Ponasterone A versus proliferating cells; assay type: cell-based; conditions: Homo sapiens, RKO p27 induced (arrested) cells, 10 μM Ponasterone A, 72 hours, value = class bound given in Table A, read-out: −logIC50 RKO p27 induced (arrested) (converted)
Method in brief: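 Viability of proliferating versus Ponasterone A (10 μM)-arrested RKOp27/RKOp21 cells after 72 h compound exposure at 37° C, in quadruplicate. Read-out is Alamar Blue fluorescence (544/590 nm) normalised to untreated cells = 100%; values as −log IC50.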

IC50 [2] [nM]	SMILES	IC50 [1] [nM]
≥ 50100	COc1cccc(C(C)CC(=O)Nc2sc3c(c2C#N)CCC(COC(=O)NC(C)c2ccnn2C)C3)c1 (stereo not drawn) [Example 337, [1-(2-Methyl-2H-pyrazol-3-yl)-ethyl]-carbamic acid 3-cyano-2-[3-(3-methoxy-phenyl)-butanoylamino]-4,5,6,7-tetrahydro-benzo[b] thiophen-6-ylmethyl ester]	501 to 2000
≥ 100000	N#Cc1c(NC(=O)/C=C/c2cccnc2)sc2c1CCC(OC(=O)N1CC(F)C1)C2 (stereo not drawn) [Example 124, 3-Fluoro-azetidine-1-carboxylic acid 3-cyano-2-((E)-3-pyridin-3-yl-allanoylamino)-4,5,6,7-tetrahydro-benzo[b]thiophen-6-yl ester]	≤ 501
≥ 50100	CC(CC(=O)Nc1sc2c(c1C#N)CCC(COC(=O)N1CCOCC1)C2)c1cccnc1 (stereo not drawn) [Example 367, Morpholine-4-carboxylic acid 3-cyano-2-(3-pyridin-3-yl-butanoylamino)-4,5,6,7-tetrahydro-benzo[b]thiophen-6-ylmethyl ester]	501 to 2000
≥ 100000	CCN(CC)C(=O)OCC1CCc2c(sc(NC(=O)/C=C/c3cccnc3)c2C#N)C1 (stereo not drawn) [Example 82, Diethyl-carbamic acid 3-cyano-2-((E)-3-pyridin-3-yl-allanoylamino)-4,5,6,7-tetrahydro-benzo[b]thiophen-6-ylmethyl ester]	≤ 501
≥ 100000	COc1cccc(CCC(=O)Nc2sc3c(c2C#N)CCC(COC(=O)NCc2ccno2)C3)c1 (stereo not drawn) [Example 243, Isoxazol-5-ylmethyl-carbamic acid 3-cyano-2-[3-(3-methoxy-phenyl)-propanoylamino]-4,5,6,7-tetrahydro-benzo[b]thiophen-6-ylmethyl ester]	501 to 2000
≥ 100000	N#Cc1c(NC(=O)/C=C/c2cccnc2)sc2c1CCC(COC(=O)N1CCC1)C2 (stereo not drawn) [Example 79, Azetidine-1-carboxylic acid 3-cyano-2-((E)-3-pyridin-3-yl-allanoylamino)-4,5,6,7-tetrahydro-benzo[b]thiophen-6-ylmethyl ester]	501 to 2000
≥ 100000	COc1cccc(CCC(=O)Nc2sc3c(c2C#N)CCC(OC(=O)NCc2cnn(C)c2)C3)c1 (stereo not drawn) [Example 223, (1-Methyl-1H-pyrazol-4-ylmethyl)-carbamic acid 3-cyano-2-[3-(3-methoxy-phenyl)-propanoylamino]-4,5,6,7-tetrahydro-benzo[b]thiophen-6-yl ester]	≤ 501
≥ 50100	COc1cccc(CCC(=O)Nc2sc3c(c2C#N)CCC(OC(=O)OCc2cncs2)C3)c1 (stereo not drawn) [Example 266, Carbonic acid 3-cyano-2-[3-(3-methoxy-phenyl)-propanoylamino]-4,5,6,7-tetrahydro-benzo[b]thiophen-6-yl ester thiazol-5-ylmethyl ester]	501 to 2000
≥ 100000	COc1cccc(C(C)CC(=O)Nc2sc3c(c2C#N)CCC(COC(=O)NCc2conc2C)C3)c1 (stereo not drawn) [Example 365]	501 to 2000
≥ 100000	CC(CC(=O)Nc1sc2c(c1C#N)CCC(OC(=O)OCc1cncs1)C2)c1cccnc1 (stereo not drawn) [Example 356, Carbonic acid 3-cyano-2-(3-pyridin-3-yl-butanoylamino)-4,5,6,7-tetrahydro-benzo[b] thiophen-6-yl ester thiazol-5-ylmethyl ester]	501 to 2000
≥ 100000	COc1cccc(CCC(=O)Nc2sc3c(c2C#N)CCC(COC(=O)NCC2CCCO2)C3)c1 (stereo not drawn) [Example 241, (Tetrahydro-furan-2-ylmethyl)-carbamic acid 3-cyano-2-[3-(3-methoxy-phenyl)-propanoylamino]-4,5,6,7-tetrahydro-benzo[b]thiophen-6-ylmethyl ester]	501 to 2000
≥ 100000	COc1cccc(CCC(=O)Nc2sc3c(c2C#N)CCC(COC(=O)NC2CC2)C3)c1 (stereo not drawn) [Example 253, Cyclopropyl-carbamic acid 3-cyano-2-[3-(3-methoxy-phenyl)-propanoylamino]-4,5,6,7-tetrahydro-benzo[b]thiophen-6-ylmethyl ester]	≤ 501
≥ 100000	N#Cc1c(NC(=O)/C=C/c2cccnc2)sc2c1CCC(COC(=O)n1cccc1)C2 (stereo not drawn) [Example 141, Pyrrole-1-carboxylic acid 3-cyano-2-((E)-3-pyridin-3-yl-allanoylamino)-4,5,6,7-tetrahydro-benzo[b]thiophen-6-ylmethyl ester]	501 to 2000
≥ 100000	CC(C)NC(=O)OCC1CCc2c(sc(NC(=O)/C=C/c3cccnc3)c2C#N)C1 (stereo not drawn) [Example 101, Isopropyl-carbamic acid 3-cyano-2-((E)-3-pyridin-3-yl-allanoylamino)-4,5,6,7-tetrahydro-benzo[b]thiophen-6-ylmethyl ester]	≤ 501
≥ 100000	CCOc1ccccc1CCC(=O)Nc1sc2c(c1C#N)CCC(OC(=O)NCc1csc(C)n1)C2 (stereo not drawn) [Example 254, (2-Methyl-thiazol-4-ylmethyl)-carbamic acid 3-cyano-2-[3-(2-ethoxy-phenyl)-propanoylamino]-4,5,6,7-tetrahydro-benzo[b]thiophen-6-yl ester]	≤ 501
≥ 100000	N#Cc1c(NC(=O)/C=C/c2cccnc2)sc2c1CCC(OC(=O)N1CC[C@@H](O)[C@@H](O)C1)C2 (stereo partly drawn) [Example 125, cis-3-, 4-Dihydroxy-piperidine-1-carboxylic acid 3-cyano-2-((E)-3-pyridin-3-yl-allanoylamino)-4,5,6,7-tetrahydro-benzo[b]thiophen-6-yl ester]	501 to 2000
≥ 100000	N#Cc1c(NC(=O)/C=C/c2cccnc2)sc2c1CCC(OC(=O)N1CCCO1)C2 (stereo not drawn) [Example 119, Isoxazolidine-2-carboxylic acid 3-cyano-2-((E)-3-pyridin-3-yl-allanoylamino)-4,5,6,7-tetrahydro-benzo[b]thiophen-6-yl ester]	≤ 501
≥ 50100	CC(CC(=O)Nc1sc2c(c1C#N)CCC(COC(=O)N1CCCC1)C2)c1ccccn1 (stereo not drawn) [Example 371, Pyrrolidine-1-carboxylic acid 3-cyano-2-(3-pyridin-2-yl-butanoylamino)-4,5,6,7-tetrahydro-benzo[b]thiophen-6-ylmethyl ester]	501 to 2000
≥ 50100	COc1cccc(CCC(=O)Nc2sc3c(c2C#N)CCC(COC(=O)OCc2nccs2)C3)c1 (stereo not drawn) [Example 262, Carbonic acid 3-cyano-2-[3-(3-methoxy-phenyl)-propanoylamino]-4,5,6,7-tetrahydro-benzo[b]thiophen-6-ylmethyl ester thiazol-2-ylmethyl ester]	501 to 2000
≥ 100000	Cc1ccncc1/C=C/C(=O)Nc1sc2c(c1C#N)CCC(COC(=O)N(C)C)C2 (stereo not drawn) [Example 129, Dimethyl-carbamic acid 3-cyano-2-[(E)-3-(4-methyl-pyridin-3-yl)-allanoylamino]-4,5,6,7-tetrahydro-benzo[b]thiophen-6-ylmethyl ester]	≤ 501
≥ 100000	CCOc1ccccc1CCC(=O)Nc1sc2c(c1C#N)CCC(COC(=O)NCc1nc(C)cs1)C2 (stereo not drawn) [Example 214, (4-Methyl-thiazol-2-ylmethyl)-carbamic acid 3-cyano-2-[3-(2-ethoxy-phenyl)-propanoylamino]-4,5,6,7-tetrahydro-benzo[b]thiophen-6-ylmethyl ester]	≤ 501
≥ 100000	N#Cc1c(NC(=O)/C=C/c2cccnc2)sc2c1CC[C@@H](COC(=O)N1CC(O)C1)C2 [Example 73b, 3-Hydroxy-azetidine-l - carboxylic acid (R)-3-cyano-2-((E)-3-pyridin-3-yl-allanoylamino)-4,5,6,7-tetrahydro-benzo[b]thiophen-6-ylmethyl ester]	501 to 2000
≥ 100000	COc1cccc(CCC(=O)Nc2sc3c(c2C#N)CCC(COC(=O)N2CCOCC2)C3)c1 (stereo not drawn) [Example 245, Morpholine-4-carboxylic acid 3-cyano-2-[3-(3-methoxy-phenyl)-propanoylamino]-4,5,6,7-tetrahydro-benzo[b]thiophen-6-ylmethyl ester]	≤ 501
≥ 50100	Cc1cc(CNC(=O)OC2CCc3c(sc(NC(=O)CC(C)c4ccccc4)c3C#N)C2)n(C)n1 (stereo not drawn) [Example 302, (2,5-Dimethyl-2H-pyrazol-3-ylmethyl)-carbamic acid 3-cyano-2-(3-phenyl-butanoylamino)-4,5,6,7-tetrahydro-benzo[b]thiophen-6-yl ester]	≤ 501
≥ 100000	N#Cc1c(NC(=O)/C=C/c2cccnc2)sc2c1CCC(OC(=O)NCC1CCOCC1)C2 (stereo not drawn) [Example 22, (Tetrahydro-pyran-4-ylmethyl)-carbamic acid 3-cyano-2-((E)-3-pyridin-3-yl-allanoylamino)-4,5,6,7-tetrahydro-benzo[b]thiophen-6-yl ester]	501 to 2000
≥ 100000	CC(CC(=O)Nc1sc2c(c1C#N)CCC(COC(=O)NCc1cnn(C)c1)C2)c1cccnc1 (stereo not drawn) [Example 281, (1-Methyl-1H-pyrazol-4-ylmethyl)-carbamic acid 3-cyano-2-(3-pyridin-3-yl-butanoyl-amino)-4,5,6,7-tetrahydro-benzo[b] thiophen-6-ylmethyl ester]	501 to 2000
≥ 100000	N#Cc1c(NC(=O)/C=C/c2cccnc2)sc2c1CCC(OC(=O)N[C@H]1CC[C@@H](O)CC1)C2 (stereo partly drawn) [Example 128, cis-4-Hydroxycyclohexyl-carbamic acid 3-cyano-2-((E)-3-pyridin-3-yl-allanoylamino)-4,5,6,7-tetrahydro-benzo[b]thiophen-6-yl ester]	501 to 2000
